Patent publication US20260232805A1, “METHODS FOR IMAGING USING SPCCT” (NH THERAGUIX, priority 2022, published 2026)

Assay: Osmolarity of the contrast agent composition
Assay type: physicochemical
Details: comparator, hyperosmolar
Source text: For comparison, Dotarem® (gadoteric acid, GUERBET, FRANCE) is hyperosmolar at 1574 mosm, which can cause side effects in humans related to the hypertonicity of a hyperosmolar product creating an intense call of water from the interstitial and cellular spaces to the plasma, responsible for pain or heat. A pain threshold of 600 mOsm/kg has been set.

O=C([O-])CN1CCN(CC(=O)[O-])CCN(CC(=O)O)CCN(CC(=O)[O-])CC1.[Gd+3] [Dotarem®, gadoteric acid]
Osmolarity: 1574 mosm
